Experimental data reported in patent US6166290A, “Glutathione-S-conjugate transport in plants” (The Trustees of the University of Pennsylvania, priority 1997, dated 2000).
Read-outs that look alike come from different tables or passages of the source.

Columns and labels:
[1] = test system: vacuolar membrane vesicles purified from Arabidopsis leaf / root; settings: cited from earlier work
AtMRP2 = target: T1, AtMRP2 (Arabidopsis thaliana, UniProt Q42093); test: AtMRP2-dependent uptake by membrane vesicles from pYES3-AtMRP2-transformed DTY168 cells; type: biochemical
T1 construct: S. cerevisiae DTY168 (ycf1 null) vacuolar-enriched membrane vesicles
Description: Cells were grown and vacuolar membrane-enriched vesicles were prepared as described (Kim et al., 1995, J Biol. Chem. 270:2630-2635-). […] Uptake was terminated by the addition of 1 ml ice-cold wash medium (400 mM sorbitol/3 mM Tris-Mes, pH 8.0) and vacuum filtration of the suspension through prewetted Millipore HA cellulose nitrate filters (pore size 0.45 μm). The filters were rinsed twice with wash medium, and the retained radioactivity was determined by liquid scintillation counting. Nonenergized uptake was estimated by the same procedure except that ATP was omitted from the uptake medium.
Membranes from DTY168/pYES3-AtMRP2 cells were incubated for 10 minutes in standard uptake medium containing 61.3 μM [^3 H]DNP-GS after which time 200 mM glucose and 50 units/ml hexokinase (Type F-300 from baker's yeast) were added. […] Control samples were treated identically except that no additions were made after the initial 10 minute incubation period.

[2] = test system: vacuolar GS-X pump (vacuolar membrane vesicles, V. radiata hypocotyls); test: GS-conjugate uptake by vacuolar membrane vesicles from etiolated hypocotyls of V. radiata; type: biochemical, Vigna radiata

T1 sequence (Q42093 whole entry): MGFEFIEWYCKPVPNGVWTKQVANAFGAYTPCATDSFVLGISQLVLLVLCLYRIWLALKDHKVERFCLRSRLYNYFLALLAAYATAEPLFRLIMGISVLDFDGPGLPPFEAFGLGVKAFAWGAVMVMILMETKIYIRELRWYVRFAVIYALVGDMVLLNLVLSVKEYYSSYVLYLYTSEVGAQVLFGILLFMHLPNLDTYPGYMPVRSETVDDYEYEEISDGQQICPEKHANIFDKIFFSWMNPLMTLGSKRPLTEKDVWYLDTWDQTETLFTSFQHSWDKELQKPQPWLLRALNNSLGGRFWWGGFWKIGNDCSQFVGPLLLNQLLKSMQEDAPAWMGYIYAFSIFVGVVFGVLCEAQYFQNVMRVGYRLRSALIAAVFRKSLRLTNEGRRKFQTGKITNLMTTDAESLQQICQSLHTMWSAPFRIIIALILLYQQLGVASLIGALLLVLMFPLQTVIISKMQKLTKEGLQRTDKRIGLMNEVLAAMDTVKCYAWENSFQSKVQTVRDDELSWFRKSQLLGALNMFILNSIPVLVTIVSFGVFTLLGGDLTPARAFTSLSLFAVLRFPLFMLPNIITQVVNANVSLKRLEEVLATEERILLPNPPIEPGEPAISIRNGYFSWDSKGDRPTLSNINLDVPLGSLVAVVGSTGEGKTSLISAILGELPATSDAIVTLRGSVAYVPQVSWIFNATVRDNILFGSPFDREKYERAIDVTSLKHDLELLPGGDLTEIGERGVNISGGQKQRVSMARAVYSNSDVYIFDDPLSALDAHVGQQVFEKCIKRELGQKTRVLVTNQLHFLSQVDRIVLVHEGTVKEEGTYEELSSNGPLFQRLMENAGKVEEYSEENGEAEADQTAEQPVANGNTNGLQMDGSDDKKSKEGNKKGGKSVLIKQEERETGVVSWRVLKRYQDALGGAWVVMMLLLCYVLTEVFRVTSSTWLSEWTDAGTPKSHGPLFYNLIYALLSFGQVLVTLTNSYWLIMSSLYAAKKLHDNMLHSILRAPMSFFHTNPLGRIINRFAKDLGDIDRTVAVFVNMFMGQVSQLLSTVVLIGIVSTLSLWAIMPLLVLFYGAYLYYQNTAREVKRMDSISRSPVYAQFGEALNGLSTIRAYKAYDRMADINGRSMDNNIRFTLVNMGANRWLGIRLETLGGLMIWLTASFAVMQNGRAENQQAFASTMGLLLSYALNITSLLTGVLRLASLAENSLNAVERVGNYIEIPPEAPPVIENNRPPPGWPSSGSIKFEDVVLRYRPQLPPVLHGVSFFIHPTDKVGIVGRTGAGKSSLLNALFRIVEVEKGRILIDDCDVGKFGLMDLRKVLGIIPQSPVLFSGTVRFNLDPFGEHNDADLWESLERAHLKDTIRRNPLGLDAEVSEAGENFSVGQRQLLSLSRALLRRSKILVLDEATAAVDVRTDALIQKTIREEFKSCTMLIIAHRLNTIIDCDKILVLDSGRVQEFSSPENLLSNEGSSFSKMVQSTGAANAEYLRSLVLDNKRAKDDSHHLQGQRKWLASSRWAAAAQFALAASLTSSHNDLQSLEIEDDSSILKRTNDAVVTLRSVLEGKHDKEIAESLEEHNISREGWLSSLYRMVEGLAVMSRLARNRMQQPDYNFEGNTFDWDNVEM

N[C@@H](CCC(=O)N[C@@H](CSc1ccc([N+](=O)[O-])cc1[N+](=O)[O-])C(=O)NCC(=O)O)C(=O)O [DNP-GS, S-(2,4-dinitrophenyl)glutathione]
rate of MgATP-dependent, uncoupler-insensitive DNP-GS uptake ([1]; Arabidopsis leaf): 2.3 nmol/mg/20 minutes
rate of MgATP-dependent, uncoupler-insensitive DNP-GS uptake ([1]; Arabidopsis root): 3.8 nmol/mg/20 minutes
Vmax for AtMRP2-dependent [3H]DNP-GS uptake in the presence of Bn-NCC-1 (AtMRP2; 15 μM Bn-NCC-1): 18.3±1.6 nmol/mg/10/min
Vmax for AtMRP2-dependent uptake (AtMRP2; MgATP-dependent, uncoupler-insensitive): 16.3±3.1 nmol/mg/10 min
IC50 ([2]; V. radiata, read-out: I50 for uptake of C3G-GS): 104 µM
IC50 ([2]; read-out: I50 for uptake of IAA-GS): 124 µM
inhibition of MgATP-dependent [3H]medicarpin-GS uptake ([2]; vanadate 10 μM, DNP-GS 100 μM, gramicidin D): more than 85%
